Measurements reported in US10738028B2, “Spiro three-membered ring, spiro five-membered ring peptide deformylase inhibitor and use thereof in antibacteria and anti-tumor” (priority 2016, dated 2020).
≈ marks a conversion by molar mass, not a printed value. Like-named read-outs stand apart in the source and are kept apart here.

Experiments:
[1] = due to instability in metabolism in the body; cited from earlier work
[2] = system: methemoglobin in blood samples of three healthy volunteers; experiment: Toxicity on methemoglobin in vitro (whole blood with S9 and NADPH, absorbance at 630 nm); format: cell-based, human; details: 500 μM compound; whole blood + S9 + NADPH; 5 hours at 37° C.
Outline: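 Fresh EDTA whole blood from three healthy volunteers incubated 5 h at 37 °C with human liver S9 (2 mg/mL), NADPH-generating system and compound at 500 μM final. Lysed in 1% Triton X-100; MetHb % from 630 nm absorbance relative to ferricyanide-oxidized blood.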

[3] = system: Streptococcus pneoumoniae (SPN); experiment: MIC, two-fold agar dilution (CLSI), clinical isolates; format: cell-based
Outline: (§1)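 MIC values come from two-fold agar dilution run per CLSI antimicrobial susceptibility testing procedure.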

[4] = system: Enterococcus faecium (EFM); experiment: as above; format: cell-based
Outline: as §1

[5] = system: methicillin-sensitive Staphylococcus epidermidis (MSSE); experiment: as above; format: cell-based
Outline: as §1

[6] = system: Escherichia coli (including ESBLs, non-ESBLs); experiment: as above; format: cell-based
Outline: as §1

[7] = system: methicillin-resistant Staphylococcus aureus (MRSA); experiment: as above; format: cell-based
Outline: as §1

[8] = system: Enterococcus faecalis (EFA); experiment: as above; format: cell-based
Outline: as §1

[9] = system: methicillin-resistant Staphylococcus epidermidis (MRSE); experiment: as above; format: cell-based
Outline: as §1

[10] = system: methicillin-sensitive Staphylococcus aureus (MSSA); experiment: as above; format: cell-based
Outline: as §1

[11] = system: Moraxella catarrhalis (BCA); experiment: as above; format: cell-based
Outline: as §1

[12] = at a high dose; Clin. Pharmacol. Ther. 2011, 90, 256; cited from earlier work
the test strains = experiment: MIC against the test strains (strain not given); format: cell-based; details: read-out: MIC (azole amide bioisosteres)
Description: 1. The invention adopts the two-fold agar dilution method recommended by the operating procedure of antimicrobial susceptibility testing set by American Clinical and Laboratory Standards Institute (CLSI) to determine the Minimum Inhibitory Concentration (MIC) of the test samples against the tested strains.

[13] = system: HCT-116 colorectal cancer cell line; experiment: CCK-8 proliferation inhibition; format: cell-based; details: Homo sapiens, HCT-116, 72 h, read-out: HCT116 inhibition rate/%
Outline: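 HCT-116 cells, seeded at 2000 cells/well in McCoy's 5A with 10% newborn bovine serum, were cultured overnight at 37° C., 5% CO2, then exposed to compound dilutions in medium for 72 hours. Viability was read with 1:10 diluted CCK-8; controls received 1‰ DMSO.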

[14] = strain printed MRSA 14-1 (second line of that name, r23, before MRSE 14-2)

CCCCC[C@H](CC(=O)NO)C(=O)N[C@H](C(=O)N1CCC[C@H]1CO)C(C)C [Actinonin]
activity in vivo [1]: no activity in vivo

CCCC[C@H](CN(O)C=O)C(=O)N1CCC[C@H]1C(=O)Nc1ccc(F)c[n+]1[O-] [LBM415, reference compound]
MetHb % (n = 3) [2]: 3.05 ± 0.01% | Anti-bacterial activity (MIC) ([3]; strain SPN 16-2): 2 µg/mL | Anti-bacterial activity (MIC) ([3]; strain SPN 16-4): 2 µg/mL | Anti-bacterial activity (MIC) ([4]; strain EFM 15-1): 2 µg/mL | Anti-bacterial activity (MIC) ([4]; strain EFM 15-2): 2 µg/mL | Anti-bacterial activity (MIC) ([4]; strain EFM 15-3): 4 µg/mL | Anti-bacterial activity (MIC) ([4]; strain EFM 15-4): 8 µg/mL | Anti-bacterial activity (MIC) ([4]; strain EFM 15-5): 4 µg/mL | Anti-bacterial activity (MIC) ([4]; strain EFM 15-6): 4 µg/mL | Anti-bacterial activity (MIC) ([5]; strain MSSE 15-3): 0.06 µg/mL | Anti-bacterial activity (MIC) ([5]; strain MSSE 15-4): 0.5 µg/mL | Anti-bacterial activity (MIC) ([5]; strain MSSE 15-5): 0.06 µg/mL | Anti-bacterial activity (MIC) ([5]; strain MSSE 15-6): 128 µg/mL | Anti-bacterial activity (MIC) ([6]; strain ECO+ 15-1): 64 µg/mL | Anti-bacterial activity (MIC) ([6]; strain ECO+ 15-2): 64 µg/mL | Anti-bacterial activity (MIC) ([6]; strain ECO+ 15-3): 64 µg/mL | Anti-bacterial activity (MIC) ([6]; strain ECO+ 15-4): 64 µg/mL | Anti-bacterial activity (MIC) ([6]; strain ECO− 15-1): 64 µg/mL | Anti-bacterial activity (MIC) ([6]; strain ECO− 15-2): 64 µg/mL | Anti-bacterial activity (MIC) ([6]; strain ECO− 15-3): 64 µg/mL | Anti-bacterial activity (MIC) ([6]; strain ECO− 15-4): 64 µg/mL | MIC ([7]; Staphylococcus aureus, MRSA, range over strains, read-out: minimum inhibitory concentration MIC against methicillin-resistant Staphylococcus (MRSA)): 0.5 to 1 µg/mL (≈ 1.26 to 2.52 µM) | Anti-bacterial activity (MIC) ([7]; strain MRSA 15-1): 1 µg/mL | Anti-bacterial activity (MIC) ([7]; strain MRSA 15-2): 1 µg/mL | Anti-bacterial activity (MIC) ([7]; strain MRSA 15-3): 1 µg/mL | Anti-bacterial activity (MIC) ([7]; strain MRSA 15-4): 0.5 µg/mL | Anti-bacterial activity (MIC) ([8]; strain EFA 15-1): 2 µg/mL | Anti-bacterial activity (MIC) ([8]; strain EFA 15-2): 2 µg/mL | Anti-bacterial activity (MIC) ([8]; strain EFA 15-3): 2 µg/mL | Anti-bacterial activity (MIC) ([8]; strain EFA 15-4): 2 µg/mL | Anti-bacterial activity (MIC) ([8]; strain EFA 15-5): 2 µg/mL | Anti-bacterial activity (MIC) ([8]; strain EFA 15-6): 128 µg/mL | Anti-bacterial activity (MIC) ([8]; strain EFA 15-9): 128 µg/mL | Anti-bacterial activity (MIC) ([9]; strain MRSE 15-1): 0.125 µg/mL | Anti-bacterial activity (MIC) ([9]; strain MRSE 15-2): 0.125 µg/mL | Anti-bacterial activity (MIC) ([9]; strain MRSE 15-3): 0.06 µg/mL | Anti-bacterial activity (MIC) ([9]; strain MRSE 15-7): 0.125 µg/mL | Anti-bacterial activity (MIC) ([10]; strain MSSA 15-3): 0.5 µg/mL | Anti-bacterial activity (MIC) ([10]; strain MSSA 15-4): 0.5 µg/mL | Anti-bacterial activity (MIC) ([10]; strain MSSA 15-5): 0.5 µg/mL | Anti-bacterial activity (MIC) ([10]; strain MSSA 15-6): 0.5 µg/mL | MIC ([11]; Moraxella catarrhalis, 7 clinical isolates, range over strains, read-out: Moraxella catarrhalis (n = 7) MIC): 0.5 to 2 µg/mL (≈ 1.26 to 5.05 µM) | Anti-bacterial activity (MIC) ([11]; strain BCA 14-1): 2 µg/mL | Anti-bacterial activity (MIC) ([11]; strain BCA 14-4): 2 µg/mL | Anti-bacterial activity (MIC) ([11]; strain BCA 14-5): 1 µg/mL | Anti-bacterial activity (MIC) ([11]; strain BCA 14-6): 2 µg/mL | Anti-bacterial activity (MIC) ([11]; strain BCA 14-7): 0.5 µg/mL | Anti-bacterial activity (MIC) ([11]; strain BCA 14-8): 0.5 µg/mL | Anti-bacterial activity (MIC) ([11]; strain BCA 14-10): 0.5 µg/mL | adverse effect in Phase I clinical trial [12]: could cause methemoglobinemia at a high dose

CCCC[C@H](CN(O)C=O)C(=O)N1CC2(CC2)C[C@H]1c1nc2ccccc2[nH]1 [Example 10, N—((R)-2-((S)-6-(1H-benzimidazol-2-yl)-5-azaspiro[2.4]heptane-5-carbonyl)hexyl)-N-hydroxyformamide]
MetHb % (n = 3) [2]: 1.12 ± 0.01% | MIC (anti-bacterial activity) ([5]; strain MSSE 14-1): 0.5 µg/mL (≈ 1.3 µM) | MIC (anti-bacterial activity) ([5]; strain MSSE 14-2): 2 µg/mL (≈ 5.2 µM) | MIC (anti-bacterial activity) ([5]; strain MSSE 14-3): 0.5 µg/mL (≈ 1.3 µM) | MIC (anti-bacterial activity) ([5]; strain MSSE 14-4): 2 µg/mL (≈ 5.2 µM) | MIC (anti-bacterial activity) ([6]; strain ECO+ 14-1): 0.5 µg/mL (≈ 1.3 µM) | MIC (anti-bacterial activity) ([6]; strain ECO+ 14-2): 32 µg/mL (≈ 83.2 µM) | MIC (anti-bacterial activity) ([6]; strain ECO− 14-1): 32 µg/mL (≈ 83.2 µM) | MIC (anti-bacterial activity) ([6]; strain ECO− 14-2): 32 µg/mL (≈ 83.2 µM) | MIC (anti-bacterial activity) ([7]; strain MRSA 14-1): 1 µg/mL (≈ 2.6 µM) | MIC (anti-bacterial activity) ([7]; strain MRSA 14-2): 2 µg/mL (≈ 5.2 µM) | MIC (anti-bacterial activity) ([7]; strain MRSA 14-4): 2 µg/mL (≈ 5.2 µM) | MIC (anti-bacterial activity) ([7]; strain MRSA 14-5): 0.5 µg/mL (≈ 1.3 µM) | MIC (anti-bacterial activity) [7, 14]: 1 µg/mL (≈ 2.6 µM) | MIC (anti-bacterial activity) ([8]; strain EFA 14-1): 8 µg/mL (≈ 20.8 µM) | MIC (anti-bacterial activity) ([8]; strain EFA 14-2): 8 µg/mL (≈ 20.8 µM) | MIC (anti-bacterial activity) ([8]; strain EFA 14-3): 8 µg/mL (≈ 20.8 µM) | MIC (anti-bacterial activity) ([8]; strain EFA 14-5): 64 µg/mL (≈ 166 µM) | MIC (anti-bacterial activity) ([9]; strain MRSE 14-2): 1 µg/mL (≈ 2.6 µM) | MIC (anti-bacterial activity) ([9]; strain MRSE 14-3): 0.5 µg/mL (≈ 1.3 µM) | MIC (anti-bacterial activity) ([9]; strain MRSE 14-4): 1 µg/mL (≈ 2.6 µM) | MIC (anti-bacterial activity) ([10]; strain MSSA 14-1): 2 µg/mL (≈ 5.2 µM) | MIC (anti-bacterial activity) ([10]; strain MSSA 14-2): 2 µg/mL (≈ 5.2 µM) | MIC (anti-bacterial activity) ([10]; strain MSSA 14-3): 2 µg/mL (≈ 5.2 µM) | MIC (anti-bacterial activity) ([10]; strain MSSA 14-4): 2 µg/mL (≈ 5.2 µM) | MIC (the test strains): 0.5 to 2 µg/mL (≈ 1.3 to 5.2 µM) | inhibition at 30 µM [13]: 10%

CCCC[C@H](CN(O)C=O)C(=O)N1CC2(CC2)C[C@H]1c1nnc(-c2ccccn2)o1 [Example 12, N-hydroxy-N—((R)-2-((S)-6-(5-(pyridin-2-yl)-1,3,4-oxadiazol-2-yl)-5-azaspiro[2.4]heptane-5-carbonyl)hexyl)carboxamide]
MetHb % (n = 3) [2]: 1.22 ± 0.02% | MIC (anti-bacterial activity) ([5]; strain MSSE 14-1): 1 µg/mL (≈ 2.42 µM) | MIC (anti-bacterial activity) ([5]; strain MSSE 14-2): 1 µg/mL (≈ 2.42 µM) | MIC (anti-bacterial activity) ([5]; strain MSSE 14-3): 0.5 µg/mL (≈ 1.21 µM) | MIC (anti-bacterial activity) ([5]; strain MSSE 14-4): 1 µg/mL (≈ 2.42 µM) | MIC (anti-bacterial activity) ([6]; strain ECO+ 14-1): 0.5 µg/mL (≈ 1.21 µM) | MIC (anti-bacterial activity) ([6]; strain ECO+ 14-2): 64 µg/mL (≈ 155 µM) | MIC (anti-bacterial activity) ([6]; strain ECO− 14-1): 128 µg/mL (≈ 310 µM) | MIC (anti-bacterial activity) ([6]; strain ECO− 14-2): 64 µg/mL (≈ 155 µM) | MIC (anti-bacterial activity) ([7]; strain MRSA 14-1): 4 µg/mL (≈ 9.67 µM) | MIC (anti-bacterial activity) ([7]; strain MRSA 14-2): 4 µg/mL (≈ 9.67 µM) | MIC (anti-bacterial activity) ([7]; strain MRSA 14-4): 4 µg/mL (≈ 9.67 µM) | MIC (anti-bacterial activity) ([7]; strain MRSA 14-5): 2 µg/mL (≈ 4.84 µM) | MIC (anti-bacterial activity) [7, 14]: 1 µg/mL (≈ 2.42 µM) | MIC (anti-bacterial activity) ([8]; strain EFA 14-1): 4 µg/mL (≈ 9.67 µM) | MIC (anti-bacterial activity) ([8]; strain EFA 14-2): 8 µg/mL (≈ 19.3 µM) | MIC (anti-bacterial activity) ([8]; strain EFA 14-3): 8 µg/mL (≈ 19.3 µM) | MIC (anti-bacterial activity) ([8]; strain EFA 14-5): 8 µg/mL (≈ 19.3 µM) | MIC (anti-bacterial activity) ([9]; strain MRSE 14-2): 0.5 µg/mL (≈ 1.21 µM) | MIC (anti-bacterial activity) ([9]; strain MRSE 14-3): 0.5 µg/mL (≈ 1.21 µM) | MIC (anti-bacterial activity) ([9]; strain MRSE 14-4): 4 µg/mL (≈ 9.67 µM) | MIC (anti-bacterial activity) ([10]; strain MSSA 14-1): 4 µg/mL (≈ 9.67 µM) | MIC (anti-bacterial activity) ([10]; strain MSSA 14-2): 2 µg/mL (≈ 4.84 µM) | MIC (anti-bacterial activity) ([10]; strain MSSA 14-3): 2 µg/mL (≈ 4.84 µM) | MIC (anti-bacterial activity) ([10]; strain MSSA 14-4): 2 µg/mL (≈ 4.84 µM) | MIC (the test strains): 0.5 to 2 µg/mL (≈ 1.21 to 4.84 µM) | inhibition at 30 µM ([13]; concentration of 30 μM, 72 hours, CCK-8): 13%
